The record followed here is ChEMBL document CHEMBL4627310, “Design, synthesis and biological evaluation of 3-nitro-1,8-naphthalimides as potential antitumor agents” (Bioorg Med Chem Lett, 2020).

In one assay the test system is SK-OV-3. Kind of assay: Antiproliferative activity against human SKOV3 cells assessed as cell growth inhibition measured after 48 hrs by MTT assay. The class given is functional, cell-based. Conditions: SK-OV-3, 48 h.
Assay [1] concerns HepG2. Kind of assay: Antiproliferative activity against human HepG2 cells assessed as cell growth inhibition measured after 48 hrs by MTT assay. The class given is functional, cell-based. Conditions: HepG2, 48 h.
The next assay concerns A549. Kind of assay: Antiproliferative activity against human A549 cells assessed as cell growth inhibition measured after 48 hrs by MTT assay. The class given is functional, cell-based. Conditions: A549, 48 h.
The test system of assay [2] is T-24. Kind of assay: Antiproliferative activity against human T24 cells assessed as cell growth inhibition measured after 48 hrs by MTT assay. Conditions: T-24, 48 h. Type of assay: functional, cell-based. (In general: Formazan colour is commonly taken as a measure of viable cells.)
The subject of the next assay is SMMC-7721. In words: Antiproliferative activity against human SMMC7721 cells assessed as cell growth inhibition measured after 48 hrs by MTT assay. Type of assay: functional, cell-based. The following applies: SMMC-7721, 48 h.
In another assay the test system is L02. Kind of assay: Cytotoxicity against human HL7702 cells assessed as cell growth inhibition measured after 48 hrs by MTT assay. Type of assay: cell-based. Conditions: L02, 48 h.
In assay [3] the test system is HepG2. Kind of assay: Anticancer activity against human HepG2 cells xenografted in mouse assessed as tumor growth inhibition by measuring T/C ratio at 5 mg/kg measured at day 14 relative to control. Type of assay: functional.
Assay [4] deals with HepG2. In words: Anticancer activity against human HepG2 cells xenografted in mouse assessed as tumor inhibition rate at 5 mg/kg measured at day 14 relative to control. Type of assay: functional. The following applies: HepG2, 336 h. For orientation: Xenograft models place foreign cells or tissue in a host animal.
For assay [5], the system named is T-24. Kind of assay: Anticancer activity against human T24 cells xenografted in mouse assessed as tumor growth inhibition by measuring T/C ratio at 5 mg/kg measured at day 14 relative to control. The class given is functional.
For assay [6], the system named is T-24. Kind of assay: Anticancer activity against human T24 cells xenografted in mouse assessed as tumor inhibition rate at 5 mg/kg measured at day 14 relative to control. The class given is functional. The following applies: T-24, 336 h.

What is called IC50 is the concentration needed to halve the response being measured. For the compound `O=C1c2cccc3cc([N+](=O)[O-])cc(c23)C(=O)N1Nc1nc2ccccc2s1`, the IC50 in the assay on SK-OV-3 was 58.8 µM; with HepG2 [1], 51.3 µM; in the assay with A549 it was 44.1 µM; in the assay on T-24 [2], 31.2 µM; in the assay on SMMC-7721, more than 100 µM; in the assay with L02, 65.3 µM.
For `O=C1c2cccc3cc([N+](=O)[O-])cc(c23)C(=O)N1Nc1ccccn1`, the IC50 was 48.2 µM with SK-OV-3; 42.7 µM with HepG2 [1]; 30 µM in the assay with A549; 57.6 µM with T-24 [2]; more than 100 µM in the assay with SMMC-7721; 82.4 µM in the assay with L02.
For `O=C1c2cccc3cc([N+](=O)[O-])cc(c23)C(=O)N1c1ccc2[nH]c(=O)[nH]c2c1`, the half-inhibitory concentration (IC50) was 41.4 µM in the assay on SK-OV-3; 23.9 µM in the assay on HepG2 [1]; 44.8 µM with A549; 58 µM in the assay with T-24 [2]; 54.7 µM with SMMC-7721; more than 100 µM with L02.
Consider `O=C1c2cccc3cc([N+](=O)[O-])cc(c23)C(=O)N1Nc1ccccc1`, for which the IC50 was 61.1 µM in the assay with SK-OV-3; 38.7 µM in the assay on HepG2 [1]; 32.1 µM with A549; 15.1 µM with T-24 [2]; more than 100 µM in the assay on SMMC-7721; 59.1 µM in the assay with L02.
Turning to `O=C1c2cccc3cc([N+](=O)[O-])cc(c23)C(=O)N1c1nc2ccccc2[nH]1`, the IC50 in the assay with SK-OV-3 was 60.5 µM; in the assay on HepG2 [1], 50.4 µM; in the assay on A549, 36.9 µM; in the assay with T-24 [2] it was 54.9 µM; with SMMC-7721, 54.1 µM; with L02, more than 100 µM.
Regarding `CNCCCN1C(=O)c2cccc3cc([N+](=O)[O-])cc(c23)C1=O`, the IC50 worked out at 28.2 µM in the assay on SK-OV-3; 10.3 µM in the assay with HepG2 [1]; 19.8 µM in the assay with A549; 9.03 µM with T-24 [2]; 26.6 µM in the assay on SMMC-7721; 14.3 µM with L02.
For orientation: T/C means the result in the treated group divided by that in the control group, in per cent. The term inhibition in vivo denotes the drop in the measured response relative to a control, in per cent. In the case of `CN(C)CCN1C(=O)c2cccc3cc([N+](=O)[O-])cc(c23)C1=O` [MITONAFIDE], the IC50 came out at 6.26 µM in the assay with SK-OV-3; 10.9 µM in the assay with HepG2 [1]; 7.94 µM in the assay with A549; 5.01 µM with T-24 [2]; 6.94 µM in the assay on SMMC-7721; 8.51 µM with L02. Besides, the results for the T/C with HepG2 [3] and with T-24 [5] were 28.8% and 29%, respectively. Also, the inhibition in vivo at 5 mg/kg amounted to 68.3% in the assay with HepG2 [4] and 67% in the assay with T-24 [6].
